Measured values reported in patent US10947210B2 (priority 2015, dated 2021).
Where two headings read alike, the source gives them in different places.

Tests used:
[1] = system: HCV subgenomic RNA replicon in Huh-luc/neo-ET cells; assay: HCV Replicon Assay and EC50 Determination; format: cell-based; conditions: Hepatitis C virus, 72 hours, luciferase reporter activity
Description: HCV Replicon Assay and EC50 Determination.
HCV replicon assay is based on the luciferase reporter cell line (Huh-luc/neo-ET). This reporter cell line is a human liver carcinoma cell line (Huh-7) stably transfected with an autonomously replicating bicistronic HCV subgenomic RNA replicon (Lohmann et al., 1999, Science, 285, 110-113). Inhibition of HCV RNA replication was monitored through analysis of reporter luciferase activity. Briefly, HCV replicon cells were incubated with inhibitors for 72 hours at 37° C. After the incubation, duplicate plates were treated and incubated in parallel for assessment of cellular toxicity by XTT staining and anti-HCV activity by measurement of luciferase reporter activity. Either human interferon alpha 2B or ribavirin was used as a reference compound. EC50 values were determined using GraFit (Erithaus software) or Excel.
Table 2 presents EC50 data obtained using this HCV replicaon assay to test representative compounds. Data are presented as follows: “+++” means <0.1 μM; “++” means ≥0.1 μM and <1.0 μM; “+” means ≥1.0 μM.

[2] = molecular target: HCV RNA-dependent RNA polymerase (NS5B) (Hepatitis C virus genotype 1b (isolate BK) (HCV), UniProt P26663); assay: RNA-Dependent RNA HCV NS5B (polymerase) Assay and IC50 Determination; format: biochemical; conditions: purified HCV NS5B polymerase, polyA:U16 substrate, 32P-UTP incorporation
How it was run: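 Purified NS5B was incubated with 0.5 uM polyA:U16, 10 μM UTP plus ^32P-UTP in 50 mM Hepes-KOH pH 7.5, 5 mM MgCl2, 5 mM DTT, 2% glycerol and 0.01% Triton X-100. Inhibitor reactions ran 60 min at 37° C, and radiolabelled RNA product was quantified after filter capture. IC50 values were obtained from concentration series.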

HCV RNA-dependent RNA polymerase (NS5B), sequence (P26663 2420-3010): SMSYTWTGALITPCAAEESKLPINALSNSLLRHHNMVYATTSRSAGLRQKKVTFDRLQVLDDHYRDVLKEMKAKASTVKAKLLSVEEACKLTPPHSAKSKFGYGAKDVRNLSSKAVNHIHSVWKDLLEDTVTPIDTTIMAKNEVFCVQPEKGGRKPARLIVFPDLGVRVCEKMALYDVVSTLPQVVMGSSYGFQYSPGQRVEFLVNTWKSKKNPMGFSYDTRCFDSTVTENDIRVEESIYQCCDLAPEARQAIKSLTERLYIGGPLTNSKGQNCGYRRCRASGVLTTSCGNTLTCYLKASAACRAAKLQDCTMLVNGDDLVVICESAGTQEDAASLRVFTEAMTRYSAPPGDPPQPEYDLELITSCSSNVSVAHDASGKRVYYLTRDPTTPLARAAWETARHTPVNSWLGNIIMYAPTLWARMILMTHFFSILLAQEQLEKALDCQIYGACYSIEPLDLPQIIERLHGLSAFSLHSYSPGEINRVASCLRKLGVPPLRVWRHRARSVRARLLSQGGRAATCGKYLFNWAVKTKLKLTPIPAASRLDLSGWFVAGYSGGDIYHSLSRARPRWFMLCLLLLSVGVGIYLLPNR

SMILES	EC50 [1] [nM]	IC50 ([2]; read-out: IC50) [µM]	IC50 ([2]; IC50 (μM)) [µM]
CNC(=O)c1c(-c2ccc(F)cc2)oc2cc(N(CCOCCOCc3ccc(C(=O)/C=C(\O)C(=O)O)cc3)S(C)(=O)=O)c(C3CC3)cc12 [Compound 02-10F, 4-{4-[2-(2-{[5-Cyclopropyl-2-(4-fluoro-phenyl)-3-methylcarbamoyl-benzofuran-6-yl]-methanesulfonyl-amino}-ethoxy)-ethoxymethyl]-phenyl}-2-hydroxy-4-oxo-but-2-enoic Acid]	< 100	> 1	–
CNC(=O)c1c(-c2ccc(F)cc2)oc2cc(N(CCOC(=O)CNC(=O)CCCC(=O)O)S(C)(=O)=O)c(C3CC3)cc12 [Compound 08-6, 4-[(2-{[5-Cyclopropyl-2-(4-fluoro-phenyl)-3-methylcarbamoyl-benzofuran-6-yl]-methanesulfonyl-amino}-ethoxycarbonylmethyl)-carbamoyl]-butyric Acid]	100 to 1000	–	0.1 to 1
CNC(=O)c1c(-c2ccc(F)cc2)oc2cc(N(CCOCCOCc3ccc(C(=O)O)cc3)S(C)(=O)=O)c(C3CC3)cc12 [Compound 06-7B, 4-[2-(2-{[5-Cyclopropyl-2-(4-fluoro-phenyl)-3-methylcarbamoyl-benzofuran-6-yl]-methanesulfonyl-amino}-ethoxy)-ethoxymethyl]-benzoic Acid]	100 to 1000	0.1 to 1	–
CNC(=O)c1c(-c2ccc(F)cc2)oc2cc(N(CCOCCOCCOC(C)C(=O)O)S(C)(=O)=O)c(C3CC3)cc12 (centres unmarked) [Compound 23-6B, 2-{2-[2-(2-{[5-Cyclopropyl-2-(4-fluoro-phenyl)-3-methylcarbamoyl-benzofuran-6-yl]-methanesulfonyl-amino}-ethoxy)-ethoxy]-ethoxy}-propionic Acid]	< 100	0.1 to 1	–
CNC(=O)c1c(-c2ccc(F)cc2)oc2cc(N(CCOCCOCc3cccc(C(C)=O)c3)S(C)(=O)=O)c(C3CC3)cc12 [Compound 02-8A, 6-(N-(2-(2-(3-Acetylbenzyloxy)-ethoxy)-ethyl)-methylsulfonamido)-5-cyclopropyl-2-(4-fluorophenyl)-N-methylbenzofuran-3-carboxamide]	< 100	–	> 1
CNC(=O)c1c(-c2ccc(F)cc2)oc2cc(N(CCOCCOCCOCC(=O)O)S(C)(=O)=O)c(C3CC3)cc12 [Compound 23-6A, {2-[2-(2-{[5-Cyclopropyl-2-(4-fluoro-phenyl)-3-methylcarbamoyl-benzofuran-6-yl]-methanesulfonyl-amino}-ethoxy)-ethoxy]-ethoxy}-acetic Acid]	100 to 1000	0.1 to 1	–
CNC(=O)c1c(-c2ccc(F)cc2)oc2cc(N(CCOCCOCc3cccc(C(=O)/C=C(\O)C(=O)O)c3)S(C)(=O)=O)c(C3CC3)cc12 [Compound 02-10A, 4-{3-[2-(2-{[5-Cyclopropyl-2-(4-fluoro-phenyl)-3-methylcarbamoyl-benzofuran-6-yl]-methanesulfonyl-amino}-ethoxy)-ethoxymethyl]-phenyl}-2-hydroxy-4-oxo-but-2-enoic Acid]	< 100	0.1 to 1	–
CNC(=O)c1c(-c2ccc(F)cc2)oc2cc(N(CCOCCOCc3ccccc3C(=O)O)S(C)(=O)=O)c(C3CC3)cc12 [Compound 06-7A, 2-[2-(2-{[5-Cyclopropyl-2-(4-fluoro-phenyl)-3-methylcarbamoyl-benzofuran-6-yl]-methanesulfonyl-amino}-ethoxy)-ethoxymethyl]-benzoic Acid]	< 100	0.1 to 1	–
CNC(=O)c1c(-c2ccc(F)cc2)oc2cc(N(CCOCCOCCOC(C(=O)O)c3ccccc3)S(C)(=O)=O)c(C3CC3)cc12 (centres unmarked) [Compound 25-5, {2-[2-(2-{[5-Cyclopropyl-2-(4-fluoro-phenyl)-3-methylcarbamoyl-benzofuran-6-yl]-methanesulfonyl-amino}-ethoxy)-ethoxy]-ethoxy}-phenyl-acetic Acid]	100 to 1000	0.1 to 1	–
CNC(=O)c1c(-c2ccc(F)cc2)oc2cc(N(CC(=O)NC(C)C(=O)NCc3cccc(C(=O)C=C(O)C(=O)O)c3)S(C)(=O)=O)c(C3CC3)cc12 (centres unmarked) [Compound 09-14F, 4-(3-{[2-(2-{[5-Cyclopropyl-2-(4-fluoro-phenyl)-3-methylcarbamoyl-benzofuran-6-yl]-methanesulfonyl-amino}-acetylamino)-propionylamino]-methyl}-phenyl)-2-hydroxy-4-oxo-but-2-enoic Acid]	100 to 1000	> 1	–
CNC(=O)c1c(-c2ccc(F)cc2)oc2cc(N(CCCCOCCc3ccc(C(=O)O)cc3)S(C)(=O)=O)c(C3CC3)cc12 [Compound 13-8C, 4-(2-(4-(N-(5-cyclopropyl-2-(4-fluorophenyl)-3-(methylcarbamoyl)benzofuran-6-yl)-methylsulfonamido)butoxy)-ethyl)benzoic Acid]	< 100	0.1 to 1	–
CNC(=O)c1c(-c2ccc(F)cc2)oc2cc(N(CC(=O)NC3(C(=O)NCc4cccc(C(=O)C=C(O)C(=O)O)c4)CCCC3)S(C)(=O)=O)c(C3CC3)cc12 [Compound 09-14E, 4-[3-({[1-(2-{[5-Cyclopropyl-2-(4-fluoro-phenyl)-3-methylcarbamoyl-benzofuran-6-yl]-methanesulfonyl-amino}-acetylamino)-cyclopentanecarbonyl]-amino}-methyl)-phenyl]-2-hydroxy-4-oxo-but-2-enoic Acid]	100 to 1000	> 1	–
CNC(=O)c1c(-c2ccc(F)cc2)oc2cc(N(CCOCCOCCOCCO)S(C)(=O)=O)c(C3CC3)cc12 [Compound 04-5, 5-Cyclopropyl-2-(4-fluorophenyl)-6-(N-(2-(2-(2-(2-hydroxyethoxy)-ethoxy)-ethoxy)-ethyl) Methylsulfonamido)-N-methylbenzofuran-3-carboxamide]	100 to 1000	–	> 1
CNC(=O)c1c(-c2ccc(F)cc2)oc2cc(N(CCOCCOCCOCC(=O)NO)S(C)(=O)=O)c(C3CC3)cc12 [Compound 23-6C, 5-Cyclopropyl-2-(4-fluoro-phenyl)-6-({2-[2-(2-hydroxycarbamoylmethoxy-ethoxy)-ethoxy]-ethyl}-methanesulfonyl-amino)-benzofuran-3-carboxylic Acid Methylamide]	< 100	–	0.1 to 1
CNC(=O)c1c(-c2ccc(F)cc2)oc2cc(N(CCOCCOCc3cccc(C(=O)O)c3)S(C)(=O)=O)c(C3CC3)cc12 [Compound 06-7C, 3-[2-(2-{[5-Cyclopropyl-2-(4-fluoro-phenyl)-3-methylcarbamoyl-benzofuran-6-yl]-methanesulfonyl-amino}-ethoxy)-ethoxymethyl]-benzoic Acid]	< 100	0.1 to 1	–
CCOC(=O)c1cccc(OCCOCCOCCN(c2cc3oc(-c4ccc(F)cc4)c(C(=O)NC)c3cc2C2CC2)S(C)(=O)=O)c1 [Compound 14-6B, 3-{2-[2-(2-{[5-Cyclopropyl-2-(4-fluoro-phenyl)-3-methylcarbamoyl-benzofuran-6-yl]-methanesulfonyl-amino}-ethoxy)-ethoxy]-ethoxy}-benzoic Acid Ethyl Ester]	–	> 1	–
CNC(=O)c1c(-c2ccc(F)cc2)oc2cc(N(CCCCCCCc3ccc(C(=O)OC)cc3)S(C)(=O)=O)c(C3CC3)cc12 [Compound 13-7D, 4-(7-{[5-Cyclopropyl-2-(4-fluoro-phenyl)-3-methylcarbamoyl-benzofuran-6-yl]-methanesulfonyl-amino}-heptyl)-benzoic Acid Methyl Ester]	–	0.1 to 1	–
